From patent US20230190717A1, “P38 GAMMA INHIBITORS AND METHOD OF USE THEREOF” (City of Hope, priority 2017, published 2023)
Where two headings read alike, the source gives them in different places.

Experiments:
p38β = target: T1, p38β (Homo sapiens, UniProt Q15759); assay: ADP-Glo in vitro kinase assay, p38β; format: biochemical
T1 construct: human recombinant p38 α, β, γ or δ protein (active full-length); purchased SignalChem; host or cells: baculovirus in Sf9 insect cells
Procedure: (§1) Kinase assay in vitro: Kinase enzyme assays in vitro were performed using ADP-Glo kit (Promega, Wis.). The luminescent ADP-Glo kinase assay measures ADP produced from ATP consumption in a kinase enzyme reaction. All compounds have been tested and shown no inhibition to luciferase activities. Briefly, in this experiment, human recombinant p38 α, β, γ or δ protein (active full-length) expressed by baculovirus in sf9 insect cells (SignalChem, Vancouver, Canada) was homogenized in wells of white opaque 96-well microplates with the kinase buffer that consisted of 40 mM Tris-HCl (pH 7.5), 20 mM MgCl2, 0.1 mg/mL BSA and 50 μM DTT. […] Next, synthetic peptide substrates ([…]) were added to the mixture at final concentration of 0.2 μg/μL, followed by adding ATP at various concentrations. The 50 μL mixture was reacted at room temperature for 60 min. […]
(§2) In vitro kinase assay (ADP-GLO): We identified p38γ inhibitors using in vitro kinase assay by screening a library of kinase inhibitors: The library consists of 244 compounds on three plates (EMD Cat #539744, #539745, and #539746) that are mostly ATP mimics. […] IC50 values were determined using […] software (Biosoft, Cambridge, United Kingdom).

[1] = tested on: phosphorylation of DLGH1 at Ser158; assay: Western blot of pDLGH1-Ser158 in CTCL cells; format: cell-based, human; conditions: SS cells, Hut78 and H9 cells; 50-100 nM
Procedure: Western blot: Western blots were performed as described previously [5]. Rabbit primary antibodies (Cell Signaling Technology (CST), Danvers, Mass.) were used at the following dilutions: anti-p38α, -p38β, -p38γ, and -p38δ (1:1000), anti-B-tubulin (1:2000), anti-p38 GAPDH 1:1000. […] For detection of p38γ protein level in SS patient samples we used a monoclonal antibody that close to N-terminus of human p38γ MAPK (SAPK3) from Abcam ((ab205926).

H3K27 acetylation = assay: Immunofluorescence confocal microscopy of H3K27 acetylation; format: cell-based, human; conditions: 800 nM, 10 hr
Procedure: Immunofluorescence Confocal microscopy: Hut 78 Cells were cytospun unto the slides and fixed with 3.8% paraformaldehyde for 30 min at room temperature (RT) and then permeabilized with 0.25% Triton X-100 in PBS, for 10 min at RT. The cells were washed twice with PBS and blocked in 3% BSA in PBS for 1 h at RT. […] Coverslips were permanently mounted with DAPI (life Technologies) for nuclear staining. Observations were carried out using a confocal laser scanning microscope (zeiss LSM 700). Primary antibodies were used at the following dilutions: anti-ß-tubulin (1:200), H3K27 ac (CST, dilution 1:500), p-p38 (CST, dilution 1:500), DLGH1 (abcam) 1:1000.

HH cells = assay: HH cell proliferation (cell number); format: cell-based, human; conditions: 100 nM and 300 nM, four days
Hut78 xenografts = conditions: for tumor growth: intraperitoneal, vs vehicle
Procedure: Female and male 6-week-old NSG mice (NOD-scid IL2Rγ null) were purchased from Jackson Laboratory (Sacramento, Calif.). Hut78 cells were used for developing CTCL xenograft tumors. Briefly, 5 million cells in 100 μL (50% Matrigel/50% PBS) were injected subcutaneously into the right flank of each mouse, and tumor development was monitored every other day. Once the tumors are were palpable and reached 100 mm^3 in volume, treatment was commenced. […] Mice were treated every two days via intraperitoneal injection. Tumors were measured twice per week using calipers.

p38δ = target: T2, p38δ (Homo sapiens, UniProt O15264); assay: ADP-Glo in vitro kinase assay, p38δ; format: biochemical; set-up: human recombinant p38 α, β, γ or δ protein (active full-length); purchased SignalChem; host or cells: baculovirus in Sf9 insect cells
T2 sequence (O15264 1-365): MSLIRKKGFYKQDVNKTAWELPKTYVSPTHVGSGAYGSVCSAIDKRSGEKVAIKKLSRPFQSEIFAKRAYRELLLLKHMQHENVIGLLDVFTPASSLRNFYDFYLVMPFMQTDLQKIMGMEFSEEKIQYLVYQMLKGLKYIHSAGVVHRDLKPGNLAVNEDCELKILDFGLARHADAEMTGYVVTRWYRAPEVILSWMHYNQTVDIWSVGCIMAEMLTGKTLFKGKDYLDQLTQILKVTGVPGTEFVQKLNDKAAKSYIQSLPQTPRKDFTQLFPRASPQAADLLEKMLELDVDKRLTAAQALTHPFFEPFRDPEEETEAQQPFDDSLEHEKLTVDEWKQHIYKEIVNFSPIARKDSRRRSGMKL
Procedure: as §1, §2

T1 sequence (Q15759 whole entry): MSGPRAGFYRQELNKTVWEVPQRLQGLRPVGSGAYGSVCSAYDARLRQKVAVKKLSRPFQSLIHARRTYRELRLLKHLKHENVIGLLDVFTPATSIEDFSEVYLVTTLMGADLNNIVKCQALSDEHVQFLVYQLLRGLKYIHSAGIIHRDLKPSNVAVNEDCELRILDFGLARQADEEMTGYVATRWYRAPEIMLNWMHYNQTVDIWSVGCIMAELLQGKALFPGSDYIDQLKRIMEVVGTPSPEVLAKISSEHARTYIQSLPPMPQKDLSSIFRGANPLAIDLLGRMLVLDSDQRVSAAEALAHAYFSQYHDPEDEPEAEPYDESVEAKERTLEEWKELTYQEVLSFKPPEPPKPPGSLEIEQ

With `Cc1ccc([N+](=O)[O-])cc1S(=O)(=O)N(C)/N=C/c1cnc2ccc(Br)cn12` [Compound 1] the “dose-dependent inhibition of kinase activity” value (p38β) was “not”, the “phosphorylation of DLGH1 at Ser158” value [1] was “inhibited phosphorylation of DLGH1 at Ser158” and the H3K27 acetylation (H3K27 acetylation) was “blocked H3K27 acetylation”. The “proliferation of HH cells” value (HH cells) was “sufficiently reduced proliferation”, the tumor growth (Hut78 xenografts; 2 mg/kg) was “statistically significant inhibition of tumor growth” and the tumor growth (Hut78 xenografts; 10 mg/kg) was “further significant reduction of tumor size”. The tumor growth (Hut78 xenografts; 10 mg/kg, listed as F7/PIK75) was “significantly inhibited tumor growth”, the “toxic effects in animal studies” value (Hut78 xenografts; mouse, in vivo) was “did not observe any toxic effects” and the IC50 (p38δ) was 32.1 to 120 nM.
